System: LPS/IL-1β-induced IL-6 secretion in human peripheral blood mononuclear cells (PBMCs)
Assay: Inhibition of LPS/IL-1β-induced IL-6 secretion in human PBMCs (IL-6 ELISA)
Assay type: cell-based
Conditions: PBMC, LPS 10 ng/mL + IL-1β 20 ng/mL, 24 h pre-incubation, 20 h stimulation
Experimental: This experiment was carried out in RPMI 1640 medium containing 10% FBS and 1% penicillin/streptomycin, with each of the compounds at an initial test concentration of 1 μM.
The compound was dissolved in DMSO to prepare a stock solution, which was serially diluted into some working solutions with a 5-fold concentration gradient using the culture medium and then added to a 96-well plate at 10 μL per well. PBMCs (Batch No.: P122101102C; Milecell Biotechnology Inc.) were counted and diluted to a cell concentration of about 1.3×10^6 cells/mL, and then added to the aforementioned compound-containing 96-well plate at 150 μL per well. The system was mixed well and incubated in a 5% CO2 incubator at 37° C. for 24 h. Then 5 μL of LPS (final concentration: 10 ng/mL) and 5 μL of IL-1β (final concentration: 20 ng/mL) were added to each well, respectively, and the culture was continued for 20 h in a 5% CO2 incubator at 37° C. After incubation, the 96-well plate was centrifuged at 2000 rpm for 4 min. The supernatant was collected and diluted 200-fold, then detected using an IL-6 ELISA kit. The OD450 values were read, and converted to IL-6 concentrations based on a standard curve. The dose-response curves were fitted using GraphPad 8.0 to calculate the IC50 values.

Row | SMILES | IC50
1 | C[C@@H]1CN(c2cc3nn([C@H]4CC[C@H](CN5CCC(n6cc7cc(C8CCC(=O)NC8=O)ccc7n6)CC5)CC4)cc3cc2NC(=O)c2cnn3cccnc23)CCO1 (some centres unmarked) [TM-47] | 3.06 nM
2 | CN(C)c1cc2nn([C@H]3CC[C@H](CN4CCN(c5nc6ccc(N7CCC(=O)NC7=O)cc6s5)CC4)CC3)cc2cc1NC(=O)c1cnn2cccnc12 [TM-55] | 1.61 nM
3 | C[C@@H]1CN(c2cc3nn([C@H]4CC[C@H](CN5CC6CN(c7nc8cc(N9CCC(=O)NC9=O)ccc8s7)CC6C5)CC4)cc3cc2NC(=O)c2cnn3cccnc23)CCO1 (some centres unmarked) [TM-63] | 8.91 nM
4 | CN(C)c1cc2nn([C@H]3CC[C@H](CN4CCN(c5nc6cc(N7CCC(=O)NC7=O)ccc6o5)CC4)CC3)cc2cc1NC(=O)c1cnn2cccnc12 [TM-145] | 2.62 nM
5 | CN(C)c1cc2nn([C@H]3CC[C@H](CN4CCN(c5nc6ccc(N7CCC(=O)NC7=O)cn6n5)CC4)CC3)cc2cc1NC(=O)c1cnn2cccnc12 [TM-110] | 21.6 nM
6 | C[C@@H]1CN(c2cc3nn([C@H]4CC[C@H](CN5CCC(n6cc7ccc(C8CCC(=O)NC8=O)cc7n6)CC5)CC4)cc3cc2NC(=O)c2cnn3cccnc23)CCO1 (some centres unmarked) [TM-48] | 1.61 nM
7 | CN(C)c1cc2nn([C@H]3CC[C@H](CN4C5CCC4CN(c4nc6ccc(N7CCC(=O)NC7=O)cc6o4)C5)CC3)cc2cc1NC(=O)c1cnn2cccnc12 [TM-146] | 44.1 nM
8 | C[C@@H]1CN(c2cc3nn([C@H]4CC[C@H](CN5CCN(c6nc7cc(N8CCC(=O)NC8=O)ccc7s6)CC5)CC4)cc3cc2NC(=O)c2cnn3cccnc23)CCO1 [TM-56] | 8.81 nM
9 | C[C@@H]1CN(C[C@H]2CC[C@H](n3cc4cc(NC(=O)c5cnn6cccnc56)c(N(C)C)cc4n3)CC2)CC[C@H]1n1cc2ccc(N3CCC(=O)NC3=O)cc2n1 [TM-26] | 0.54 nM
10 | C[C@@H]1CN(C[C@H]2CC[C@H](n3cc4cc(NC(=O)c5cnn6cccnc56)c(N(C)C)cc4n3)CC2)CCN1c1nc2ccc(N3CCC(=O)NC3=O)cc2s1 [TM-65] | 2.26 nM
11 | CN(C)c1cc2nn([C@H]3CC[C@H](CN4CCCN(c5nc6ccc(N7CCC(=O)NC7=O)cc6s5)CC4)CC3)cc2cc1NC(=O)c1cnn2cccnc12 [TM-150] | 6.94 nM
12 | CN(C)c1cc2nn([C@H]3CC[C@H](CN4CCC(c5cc6cc(N7CCC(=O)NC7=O)ccn6n5)CC4)CC3)cc2cc1NC(=O)c1cnn2cccnc12 [TM-175] | 13.2 nM
13 | CN(C)c1cc2nn([C@H]3CC[C@H](CN4CCN(c5nc6cc(F)c(N7CCC(=O)NC7=O)cc6o5)CC4)CC3)cc2cc1NC(=O)c1cnn2cccnc12 [TM-85] | 8.41 nM
14 | CN(C)c1cc2nn([C@H]3CC[C@H](CN4CC5(CCN(c6nc7cc(F)c(N8CCC(=O)NC8=O)cc7o6)CC5)C4)CC3)cc2cc1NC(=O)c1cnn2cccnc12 [TM-90] | 1.44 nM
15 | O=C1CCC(c2ccc3cn(C4CCN(C[C@H]5CC[C@H](n6cc7cc(NC(=O)c8cnn9cccnc89)c(N8CCOCC8)cc7n6)CC5)CC4)nc3c2)C(=O)N1 (some centres unmarked) [TM-1] | 5.86 nM
16 | CN(C)c1cc2nn(C3CCN(C[C@H]4CC[C@H](n5cc6cc(N7CCC(=O)NC7=O)ccc6n5)CC4)CC3)cc2cc1NC(=O)c1cnn2cccnc12 [TM-53] | 6.14 nM
17 | CN(C)c1cc2nn([C@H]3CC[C@H](CN4CC5(CCN(c6nc7ccc(N8CCC(=O)NC8=O)cn7n6)CC5)C4)CC3)cc2cc1NC(=O)c1cnn2cccnc12 [TM-148] | 11.6 nM
18 | C[C@@H]1CN(c2cc3nn([C@H]4CC[C@H](CN5CCC(n6cc7ccc(N8CCC(=O)NC8=O)cc7n6)CC5)CC4)cc3cc2NC(=O)c2cnn3cccnc23)CCO1 [TM-45] | 8.81 nM

Row | SMILES | IC50
19 | CN(C)c1cc2nn([C@H]3CC[C@H](CN4CCN(c5nc6ccc(N7CCC(=O)NC7=O)cc6o5)CC4)CC3)cc2cc1NC(=O)c1cnn2cccnc12 [TM-75] | 13.2 nM
20 | CN(C)c1cc2nn(C3CCC(CN4CC5CN(c6nc7cc(N8CCC(=O)NC8=O)ccc7s6)CC5C4)CC3)cc2cc1NC(=O)c1cnn2cccnc12 (centres unmarked) [TM-61] | 1.15 nM
21 | CN(C)c1cc2nn([C@H]3CC[C@H](CN4CCN(c5nc6cc(N7CCC(=O)NC7=O)ccc6s5)CC4)CC3)cc2cc1NC(=O)c1cnn2cccnc12 [TM-54] | 3.06 nM
22 | CN(C)c1cc2nn([C@H]3CC[C@H](CN4C[C@@H]5C[C@H]4CN5c4nc5ccc(N6CCC(=O)NC6=O)cc5s4)CC3)cc2cc1NC(=O)c1cnn2cccnc12 [TM-74] | 0.86 nM
23 | CN(C)c1cc2nn([C@H]3CC[C@H](CN4C[C@H]5C[C@@H]4CN5c4nc5ccc(N6CCC(=O)NC6=O)cc5o4)CC3)cc2cc1NC(=O)c1cnn2cccnc12 [TM-83] | 44.1 nM
24 | C[C@@H]1CN(c2cc3nn([C@H]4CC[C@H](CN5CC6CN(c7nc8ccc(N9CCC(=O)NC9=O)cc8s7)CC6C5)CC4)cc3cc2NC(=O)c2cnn3cccnc23)CCO1 (some centres unmarked) [TM-62] | 2.48 nM
25 | CN(C)c1cc2nn(C3CCN(C[C@H]4CC[C@H](n5cc6ccc(N7CCC(=O)NC7=O)cc6n5)CC4)CC3)cc2cc1NC(=O)c1cnn2cccnc12 [TM-52] | 18.7 nM
26 | O=C1CCN(c2ccc3nn(C4CCN(C[C@H]5CC[C@H](n6cc7cc(NC(=O)c8cnn9cccnc89)c(N8CCOCC8)cc7n6)CC5)CC4)cc3c2)C(=O)N1 [TM-44] | 10.2 nM
27 | C[C@@H]1CN(c2cc3nn(C4CCN(CC5CCC(n6cc7ccc(C8CCC(=O)NC8=O)cc7n6)CC5)CC4)cc3cc2NC(=O)c2cnn3cccnc23)CCO1 (some centres unmarked) [TM-50] | 4.65 nM
28 | CN(C)c1cc2nn(C3CCC(CN4CC5CN(c6nc7ccc(N8CCC(=O)NC8=O)cc7s6)CC5C4)CC3)cc2cc1NC(=O)c1cnn2cccnc12 (centres unmarked) [TM-60] | 1.94 nM
29 | C[C@@H]1CN(c2cc3nn([C@H]4CC[C@H](CN5CCC(n6cc7cc(N8CCC(=O)NC8=O)ccc7n6)CC5)CC4)cc3cc2NC(=O)c2cnn3cccnc23)CCO1 [TM-46] | 7.46 nM
30 | CN(C)c1cc2nn(C3CCN(CC4CCN(c5nc6cc(N7CCC(=O)NC7=O)ccc6s5)CC4)CC3)cc2cc1NC(=O)c1cnn2cccnc12 [TM-128] | 36.6 nM
31 | C[C@@H]1CN(c2cc3nn(C4CCN(CC5CCC(n6cc7cc(C8CCC(=O)NC8=O)ccc7n6)CC5)CC4)cc3cc2NC(=O)c2cnn3cccnc23)CCO1 (some centres unmarked) [TM-49] | 1.33 nM
32 | CN(C)c1cc2nn([C@H]3CC[C@H](CN4CCC(C5Nc6cc(N7CCC(=O)NC7=O)ccc6C5=O)CC4)CC3)cc2cc1NC(=O)c1cnn2cccnc12 (some centres unmarked) [TM-144] | 38.4 nM
33 | O=C1CCC(c2ccc3nn(C4CCN(C[C@H]5CC[C@H](n6cc7cc(NC(=O)c8cnn9cccnc89)c(N8CCOCC8)cc7n6)CC5)CC4)cc3c2)C(=O)N1 (some centres unmarked) [TM-2] | 5.07 nM
34 | C[C@@H]1CN(c2cc3nn([C@H]4CC[C@H](CN5CCN(c6nc7ccc(N8CCC(=O)NC8=O)cc7s6)CC5)CC4)cc3cc2NC(=O)c2cnn3cccnc23)CCO1 [TM-57] | 10.2 nM
35 | C[C@H]1CN(C[C@H]2CC[C@H](n3cc4cc(NC(=O)c5cnn6cccnc56)c(N(C)C)cc4n3)CC2)CCN1c1nc2ccc(N3CCC(=O)NC3=O)cc2s1 [TM-66] | 19.6 nM
